Measured values from US5760036A, “Aminediol protease inhibitors” (E. R. Squibb & Sons, Inc., priority 1995, dated 1998).
Where two headings read alike, the source gives them in different places.

Columns and labels:
[1] = system: RF strain of HIV (CEM-SS cells); assay: Cell Culture Anti-HIV Activity (cell viability, formazan); format: cell-based; conditions: CEM-SS cells, RF strain of HIV, multiplicity of infection 0.04, 6 days at 37° C., 450 nm, read-out: HIV (CEM Cells) IC50
Method in brief: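 Half-log compound dilutions added to CEM-SS cells (5000/well) carrying HIV RF (MOI 0.04), 6 days, 37° C. Cell protection measured as formazan from tetrazolium, A450. IC50: drug level restoring infected-cell formazan to 50% of the uninfected untreated control.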

HIV protease = target: T1, HIV protease (Human immunodeficiency virus type 1 group M subtype B, UniProt P04585); assay: HIV Protease Assay; format: biochemical
T1 construct: and purified protease
Method in brief: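 At a single final concentration of 10 μM (4% DMSO), inhibitors were added to a 30-minute, 37° C reaction of purified enzyme with 450 μM H2N-Val-Ser-Gln-Asn-(β-naphthyl-alanine)-Pro-Val-Ile-OH at pH 5.5 (sodium acetate, BSA). Hydrolysis was quantified by reverse-phase HPLC with 220 nm detection after acid quench.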

[2] = Human immunodeficiency virus 1, CEM-SS, 144 h
[3] = pH 5.5, 10 μM inhibitor, 4% DMSO, 450 μM substrate, pH 5.5, 30 minutes at 37° C., RP-HPLC, read-out: HIV Protease % Inhibition at 10 μM
[4] = pH 5.5, read-out: HIV Protease % Inhibition at 10 μM

inhibition at 10 µM (HIV protease; [3]) [%] | Compound | IC50 [1, 2] [nM] | other results
99 | CC(C)(C)OC(=O)N[C@@H](Cc1ccccc1)[C@H](O)CNC[C@@H](O)[C@H](Cc1ccccc1)NC(=O)[C@@H](NC(=O)OCc1nc2ccccc2s1)C(C)(C)C [Compound 292, [S-[1R*,2S*(2S*,3R*)]]-[2,2-Dimethyl-1-[[[3-[[3-[[(1,1-dimethylethoxy)carbonyl]amino]-2-hydroxy-4-phenylbutyl]amino]-2-hydroxy-1-(phenylmethyl)propyl]amino]carbonyl]propyl]carbamic acid, (2-benzothiazolyl)methyl ester] | 170 | –
92 | CC(C)(C)OC(=O)N[C@@H](Cc1ccccc1)[C@H](O)CNC[C@@H](O)[C@H](Cc1ccccc1)NC(=O)OC[C@@H](O)CO [Compound 230, [1S-(1R*,2S*),(R*)]-[Iminobis[2-hydroxy-1-(phenylmethyl)-3,1-propanediyl]]biscarbamic acid, 2,3-dihydroxypropyl 1,1-dimethylethyl ester] | 4900 | –
65 | CC(C)OC(=O)N[C@@H](Cc1ccccc1)[C@H](O)CNC[C@@H](O)[C@H](Cc1ccccc1)NC(=O)OC(C)C [Compound 123, [R-(R*,S*)]-[Iminobis[2-hydroxy-1-(phenylmethyl)-3.1-propandiyl]biscarbamic acid, bis(1-methylethyl)ester] | 1000 | –
61 | COCC(C)(C)OC(=O)N[C@@H](Cc1ccccc1)[C@H](O)CNC[C@@H](O)[C@H](Cc1ccccc1)NC(=O)OC(C)(C)C [Compound 168, [R-(R*,S*)]-[Iminobis[2-hydroxy-1-(phenylmethyl)-3,1-propanediyl)biscarbamic acid, 1,1-dimethylethyl 2-methoxy-1,1-dimethylethyl ester] | 1400 | –
100 | CC(C)[C@H](NC(=O)OCc1ccccc1)C(=O)N[C@@H](Cc1ccccc1)[C@H](O)CNC[C@@H](O)[C@H](Cc1ccccc1)NC(=O)[C@@H](NC(=O)OCc1ccccc1)C(C)C [Compound 42, [1S-(1R*,2S*)]-N,N'-[Iminobis[2-hydroxy-1-(phenylmethyl)-3,1-proanediyl]bis[N^2-[(phenylmethoxy)carbonyl]-L-valinamide]] | 600 | –
86 | CC(C)[C@H](NC(=O)OC[C@H](O)CO)C(=O)N[C@@H](Cc1ccccc1)[C@H](O)CNC[C@@H](O)[C@H](Cc1ccccc1)NC(=O)OC(C)(C)C (relative stereo) [Compound 219, [[1R*,2S*(2S*,3R*)],N^2-(S*)]-N^2-[(2,3-Dihydroxypropoxy)carbonyl]-N-[3-[[3-[[(1,1-dimethylethoxy)carbonyl]-amino]-2-hydroxy-4-phenylbutyl]amino]-2-hydroxy-1-(phenylmethyl)propyl]-L-valinamide] | 35000 | –
100 | CC(C)[C@H](NC(=O)N(C)Cc1ccccn1)C(=O)N[C@@H](Cc1ccccc1)[C@H](O)CNC[C@@H](O)[C@H](Cc1ccccc1)NC(=O)OC(C)(C)C [Compound 76, [S-[1R*,2S*(2S*,3R*)]]-N-[3-[[3-[[(1,1-Dimethylethoxy)carbonylamino]-2-hydroxy-4-phenylbutyl]amino]-2-hydroxy-1-(phenylmethyl)propyl]-N^2 [[methyl(2-pyridinyl-methyl)amino]carbonyl]-L-valinamide] | 600 | –
99 | CC(C)(C)OC(=O)N[C@@H](Cc1ccccc1)[C@H](O)CNC[C@@H](O)[C@H](Cc1ccccc1)NC(=O)[C@@H](NC(=O)OCc1cc2cccnc2o1)C(C)(C)C [Compound 352, [S-[1R*,2S*(2S*,3R*)]]-[2,2-Dimethyl-1-[[[3-[[3-[[(1,1-dimethylethoxy)carbonyl]amino]-2-hydroxy-4-phenylbutyl]amino]-2-hydroxy-1-(phenylmethyl)-propyl]amino]carbonyl]propyl]carbamic acid, (2-furo[2,3-b]pyridinyl)methyl ester] | 100 | –
97 | CC(C)(C)OC(=O)N[C@@H](Cc1ccccc1)[C@H](O)CNC[C@@H](O)[C@H](Cc1ccccc1)NC(=O)OC(C)(C)CCOCc1ccccc1 [Compound 158, [1S-(1R*,2S*)]-[Iminobis[2-hydroxy-1-(phenylmethyl)-3,1-propanediyl]biscarbamic acid, 1,1-dimethylethyl 1,1-dimethyl-3-(phenylmethoxy)-propyl ester] | > 1800 | –

The next lines start with the molecule.

Compound | inhibition at 10 µM (HIV protease; [3]) [%] | IC50 [1, 2] [nM] | other results
CC(C)(C)OC(=O)N[C@@H](Cc1ccccc1)[C@H](O)CNC[C@@H](O)[C@H](Cc1ccc(OCC(=O)N2CCOCC2)cc1)NC(=O)OC(C)(C)C [Compound 226, [1S-[1R*,2S*(2S*,3R*)]]-[3-[[3-[[(1,1-Dimethylethoxy)carbonyl]amino]-2-hydroxy-4-(4-[2-(4-morpholinyl)-2-oxo-ethoxy]phenyl]butyl]amino]-2-hydroxy-1-(phenylmethyl)propyl]carbamic acid, 1,1-dimethylethyl ester] | 98 | 50 | –
CC(C)(C)OC(=O)N[C@@H](Cc1ccccc1)[C@H](O)CNC[C@@H](O)[C@H](Cc1ccccc1)NC(=O)[C@](C)(O)c1ccccc1 [Compound 353, [1S-[1R*,2S*[2S*,3R*(S*)]]]-[3-[[3-[(2-Hydroxy-1-oxo-2-phenylpropyl)amino]-2-hydroxy-4-phenylbutyl]amino]-2-hydroxy-l-(phenylmethyl)propyl]carbamic acid, 1,1-dimethylethyl ester] | – | 1100 | inhibition at 10 µM (HIV protease; [4]): 98%
CC1(C)CCCC1(O)C(=O)N[C@@H](Cc1ccccc1)[C@H](O)CNC[C@@H](O)[C@H](Cc1ccccc1)NC(=O)C1(O)CCCC1(C)C (single isomer, unassigned; isomer a) [Compound 336] | 100 | – | IC50 [1]: 40 nM
CC(C)(C)NC(=O)N[C@@H](Cc1ccccc1)[C@H](O)CNC[C@@H](O)[C@H](Cc1ccccc1)NC(=O)NC(C)(C)C [Compound 47, [R-(R*,S*)]-N,N"-[Iminobis[2-hydroxy-1-(phenylmethyl)-3,1-propanediyl]]-bis[N'-(1,1-dimethylethyl)urea]] | 81 | 1100 | –
CC(C)(C)OC(=O)N[C@@H](Cc1ccccc1)[C@H](O)CNC[C@@H](O)[C@H](Cc1ccccc1)NC(=O)C(C)(O)C(C)(C)CO (single isomer, unassigned; isomer b) [Compound 357, [1S-[1R*,2S*(2S*,3R*)]]-[3-[[3-[(2,4-Dihydroxy-2,3,3-trimethyl-1-oxobutyl)amino]-2-hydroxy-4-phenylbutyl]amino]-2-hydroxy-1-(phenylmethyl)propyl]carbamic acid, 1,1-dimethylethyl ester, isomer B] | – | – | IC50 [1]: 110 nM; HIV Protease % Inhibition at 10 μM (HIV protease): 99%
CC1(C)CCCC1(O)C(=O)N[C@@H](Cc1ccccc1)[C@H](O)CNC[C@@H](O)[C@H](Cc1ccccc1)NC(=O)C1(O)CCCC1(C)C (single isomer, unassigned; isomer b) [Compound 337] | – | – | IC50 [1]: 290 nM; HIV Protease % Inhibition at 10 μM (HIV protease; 10 μM inhibitor, 4% DMSO, 450 μM substrate, pH 5.5, 30 minutes at 37° C., RP-HPLC): 99%
CC(C)(C)CC(=O)N[C@@H](Cc1ccccc1)[C@H](O)CNC[C@@H](O)[C@H](Cc1ccccc1)NC(=O)OC(C)(C)C [Compound 60, [1S-[1R*,2S*(2S*,3R*)]]-[3 [[3-[(3,3-Dimethyl-1-oxybutyl)amino]-2-hydroxy-4-phenylbutyl]amino]-2-hydroxy-1-(phenylmethyl)-propyl]carbamic acid, 1,1-dimethylethyl ester] | – | 1200 | inhibition at 10 µM (HIV protease; [4]): 78%
COCCOc1ccc(C[C@H](NC(=O)OC(C)(C)C)[C@H](O)CNC[C@@H](O)[C@H](Cc2ccccc2)NC(=O)OC(C)(C)CO)cc1 [Compound 299, [1S-[1R*, 2S*(2S*,3R*)]-[3-[[(1,1-Dimethylethoxy)carbonyl]amino]-2-hydroxy-4-[4-(2-methoxyethoxy)phenyl]butyl]amino]-2-hydroxy-1-(phenylmethyl)propyl]carbamic acid, 1-(hydroxymethyl)-1-methylethyl ester] | 99 | 240 | –
CC(C)(C)OC(=O)N[C@@H](Cc1ccccc1)[C@H](O)CNC[C@@H](O)[C@H](Cc1ccccc1)NC(=O)OC1(C)CCC1 [Compound 160, [1S-(1R*,2S*)]-[Iminobis[2-hydroxy-1-(phenylmethyl)-3,1-propanediyl]]bis[carbamic acid], 1,1-dimethylethyl-1-methylcyclobutyl ester] | 99 | 80 | –
CC(C)(C)OC(=O)N[C@@H](Cc1ccccc1)[C@H](O)CNC[C@@H](O)[C@H](Cc1ccc(OCCN2CCOC2=O)cc1)NC(=O)OC(C)(C)C [Compound 343, [1S-[1R*,2S*(2S*,3R*)]]-[1-[[[3-[[(1,1-Dimethylethoxy)carbonyl]amino]-2-hydroxy-4-[4-[2-(2-oxo-3-oxazolidinyl)ethoxy]phenyl]butyl]amino]-2-hydroxy-1-(phenylmethyl)propyl]carbamic acid, 1,1-dimethylethyl ester] | 99 | 50 | –
O=C(N[C@@H](Cc1ccccc1)[C@H](O)CNC[C@@H](O)[C@H](Cc1ccccc1)NC(=O)O[C@H]1CCOC1)O[C@H]1CCOC1 [Compound 338, [1S-(1R*,2S*), (R*)]-[Iminobis[2-hydroxy-1-(phenylmethyl)-3,1-propanediyl]]bis[carbamic acid], bis(3-tetrahydrofuranyl)ester] | 99 | 930 | –
